{
  "source": "paper PMC7247319",
  "about": "“The mitochondria-targeted peptide SS-31 binds lipid bilayers and modulates surface electrostatics as a key component of its mechanism of action” (The Journal of Biological Chemistry, 2020)",
  "test_system": "mitoplasts from WT and Δcrd1 yeast",
  "assay": "ANS-detected surface potential of mitoplasts",
  "parameters": "species or system Saccharomyces cerevisiae",
  "from_the_text": "Figure 6. Interaction of SS-31 with isolated mitochondria. A, [ald]SS-31 binding with differing phospholipid composition. Left, percentages of total phospholipid of each species (phosphatidylcholine (PC), phosphatidylethanolamine (PE), cardiolipin (CL), monolyso-CL (MLCL), phosphatidylglycerol (PG), phosphatidic acid (PA), phosphatidylinositol (PI), phosphatidylserine (PS), and lysophosphatidylcholine (LPC)) in mitochondria from WT, Δtaz1, and Δcrd1 strains measured by shotgun lipidomics. Right, binding of 1 μM [ald]SS-31 with mitochondria isolated from WT, Δtaz1, and Δcrd1 yeast strains quantified as the mean fractional increase (F/F0) in aladan emission with increasing mitochondria concentration for fully energized mitochondria. Inset, relative binding of [ald]SS-31 to mitochondria (0.2 mg ml^−1) in the presence or absence of 1 μM valinomycin (val) as indicated. Values shown are means ± S.D. (error bars) (n = 3). B, comparison of [ald]SS-31 binding to mitochondria and model membranes. […]\nThe final goal of these experiments was to evaluate the effect of SS peptides on the surface electrostatic properties of mitochondrial membranes. […] We therefore compared the titration of mitoplasts with SS-31 and mono- and divalent cations (K^+ and Ca^2+, respectively) to evaluate the relative effects of each species on ANS-detected ψs (Fig. 6C). […]",
  "note": "Where a SMILES comes first, the peptide text is derived from it. [ ]: non-standard residue; d: D form. Dmt = Cc1cc(O)cc(C)c1C[C@H](N)C(=O)O",
  "data": [
    {"smiles": "Cc1cc(O)cc(C)c1C[C@H](NC(=O)[C@H](N)CCCNC(=N)N)C(=O)N[C@@H](CCCCN)C(=O)N[C@@H](Cc1ccccc1)C(N)=O", "note": "[SS-31, D-Arg-2′6′-dimethyl-Tyr-Lys-Phe-NH2] (H-[dR][Dmt]KF-NH2)", "values": [
      {"measurement": "effect of peptide addition prior to CaCl2 titration on Ca2+-mediated decrease in ψs", "setting": "WT mitoplasts, 20 μM SS-31 added before CaCl2", "result": "strongly blunted the effects of Ca^2+ on surface potential"},
      {"measurement": "effect on ANS fluorescence (ψs) of mitoplasts", "setting": "titration of WT and Δcrd1 mitoplasts, n = 3", "result": "increase in ANS fluorescence"}
    ]}
  ]
}
